Data from patent US20190367516A1 (Bayer Pharma Aktiengesellschaft, priority 2015, published 2019).
Where two headings read alike, the source gives them in different places.

Target: T1, human M2 receptor (Homo sapiens, UniProt P08172)
T1 sequence (P08172 1-466): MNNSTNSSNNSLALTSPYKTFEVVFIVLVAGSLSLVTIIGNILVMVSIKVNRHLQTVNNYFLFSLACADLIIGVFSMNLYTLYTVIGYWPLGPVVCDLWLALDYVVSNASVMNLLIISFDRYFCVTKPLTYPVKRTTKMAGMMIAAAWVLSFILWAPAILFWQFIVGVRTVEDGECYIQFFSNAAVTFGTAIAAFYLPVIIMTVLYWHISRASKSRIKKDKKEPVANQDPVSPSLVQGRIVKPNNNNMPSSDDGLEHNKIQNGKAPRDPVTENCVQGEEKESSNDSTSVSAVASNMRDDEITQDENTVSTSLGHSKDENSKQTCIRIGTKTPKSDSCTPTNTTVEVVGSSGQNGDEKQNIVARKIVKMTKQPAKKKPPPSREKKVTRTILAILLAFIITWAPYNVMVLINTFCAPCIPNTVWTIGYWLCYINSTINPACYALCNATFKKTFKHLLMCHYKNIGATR

[1] = Receptor activity EC50, M2-GIRK1/4 activation test, acetylcholine at EC20, allosteric potency, in some cases mean values from two or more determinations
[2] = Receptor activity EC50, allosteric potency at EC20 acetylcholine, M2-GIRK1/4 reporter cells, in some cases mean of two or more determinations
[3] = read-out: Efficiency, boosting of the acetylcholine effect at EC20 acetylcholine concentration, M2-GIRK1/4 reporter cells

| EC50 [1] [nM] | EC50 [2] [nM] | Emax [3] [%] | SMILES | also measured |
| --- | --- | --- | --- | --- |
| – | 12 | 100 | O=C(NC(C(F)(F)F)C(F)(F)F)c1cn(-c2c(F)cc(F)cc2F)c2nc(N3C[C@@H](O)[C@H](O)C3)ccc2c1=O [Example 572, 7-[(3R,4R)-3,4-Dihydroxypyrrolidin-1-yl]-N-(1,1,1,3,3,3-hexafluoropropan-2-yl)-4-oxo-1-(2,4,6-trifluorophenyl)-1,4-dihydro-1,8-naphthyridine-3-carboxamide] | – |
| – | 13 | 98.5 | CC(C)C(C)NC(=O)c1cn(-c2c(F)cc(F)cc2F)c2nc(N3C[C@@H](O)CC3=O)ccc2c1=O (stereo in doubt) [Example 482, 7-[(4S)-4-Hydroxy-2-oxopyrrolidin-1-yl]-N-[(2R)-3-methylbutan-2-yl]-4-oxo-1-(2,4,6-trifluorophenyl)-1,4-dihydro-1,8-naphthyridine-3-carboxamide] | – |
| – | 67 | 97 | CC(NC(=O)c1cn(-c2ccc(F)cc2F)c2nc(N3C[C@@H](O)CC3=O)ccc2c1=O)C(F)(F)C(F)(F)F (single isomer, unassigned) [Example 623] | – |
| – | 28 | 96.9 | O=C(N[C@@H](C1CC1)C(F)(F)F)c1cn(-c2c(F)cc(F)cc2F)c2nc(N3CC(O)C4(CC4)C3)ccc2c1=O (mixture of isomers) [Example 600, N-[(1S)-1-Cyclopropyl-2,2,2-trifluoroethyl]-7-[7-hydroxy-5-azaspiro[2.4]hept-5-yl]-4-oxo-1-(2,4,6-trifluorophenyl)-1,4-dihydro-1,8-naphthyridine-3-carboxamide] | – |
| – | 72 | – | CC[C@@H](NC(=O)c1cn(-c2ccc(F)cc2F)c2nc(N3C(=O)CCC3C)ccc2c1=O)C(F)(F)F (single isomer, unassigned) [Example 428] | Efficiency (boosting of the acetylcholine effect at EC20 acetylcholine concentration, M2-GIRK1/4 reporter cells): 86.0% |
| – | 89 | 100 | NC(=O)[C@@H]1CN(c2ccc3c(=O)c(C(=O)N[C@@H](C4CC4)C(F)(F)F)cn(-c4c(F)cc(F)cc4F)c3n2)C(=O)O1 [Example 668, 7-[(5S)-5-Carbamoyl-2-oxo-1,3-oxazolidin-3-yl]-N-[(1 S)-1-cyclopropyl-2,2,2-trifluoroethyl]-4-oxo-1-(2,4,6-trifluorophenyl)-1,4-dihydro-1,8-naphthyridine-3-carboxamide] | – |
| – | 63 | 96 | CC[C@H](NC(=O)c1cn(-c2c(F)cc(F)cc2F)c2nc(NC(C)(C)C)ccc2c1=O)C(F)(F)F [Example 499] | – |
| – | 103 | 91.5 | CN1CCN(c2ccc3c(=O)c(C(=O)N[C@@H](C4CC4)C(F)(F)F)cn(-c4c(F)cc(F)cc4F)c3n2)CC1 [Example 490] | – |
| – | 25 | 89.5 | COC(=O)N1CCN(c2ccc3c(=O)c(C(=O)N[C@@H](C4CC4)C(F)(F)F)cn(-c4c(F)cc(F)cc4F)c3n2)CC1 [Example 603, Methyl 4-[6-{[(1 S)-1-cyclopropyl-2,2,2-trifluoroethyl]carbamoyl}-5-oxo-8-(2,4,6-trifluorophenyl)-5,8-dihydro-1,8-naphthyridin-2-yl]piperazine-1-carboxylate] | – |
| – | 56 | 100 | CC(C)(CC(F)(F)F)NC(=O)c1cn(-c2c(F)cc(F)cc2F)c2nc(N3CC(O)C4(CC4)C3)ccc2c1=O (single isomer, unassigned) [Example 570, 7-[7-Hydroxy-5-azaspiro[2.4]hept-5-yl]-4-oxo-N-(4,4,4-trifluoro-2-methylbutan-2-yl)-1-(2,4,6-trifluorophenyl)-1,4-dihydro-1,8-naphthyridine-3-carboxamide] | – |

The next lines start with the compound.

| SMILES | EC50 [1] [nM] | EC50 [2] [nM] | Emax [3] [%] | also measured |
| --- | --- | --- | --- | --- |
| CC(C)(CC(F)(F)F)NC(=O)c1cn(-c2c(F)cc(F)cc2F)c2nc(N3CCCN(CCO)C3=O)ccc2c1=O [Example 383, 7-[3-(2-Hydroxyethyl)-2-oxotetrahydropyrimidin-1(2H)-yl]-4-oxo-N-(4,4,4-trifluoro-2-methylbutan-2-yl)-1-(2,4,6-trifluorophenyl)-1,4-dihydro-1,8-naphthyridine-3-carboxamide] | 18 | – | – | – |
| O=C(N[C@H](c1ccccc1Cl)C(F)(F)F)c1cn(-c2ccc(F)cc2F)c2nc(N3CCCC(O)C3=O)ccc2c1=O (single isomer, unassigned) [Example 209] | 163 | – | – | – |
| CC1CC(=O)N(c2ccc3c(=O)c(C(=O)NC(C4CC4)C(F)(F)F)cn(-c4c(F)cc(F)cc4F)c3n2)C1 (stereo in doubt) [Example 420, N-[(1R)-1-cyclopropyl-2,2,2-trifluoroethyl]-7-[4-methyl-2-oxopyrrolidin-1-yl]-4-oxo-1-(2,4,6-trifluorophenyl)-1,4-dihydro-1,8-naphthyridine-3-carboxamide] | – | 16 | 97.5 | – |
| CN(CCF)c1ccc2c(=O)c(C(=O)NC34CC5CC(CC(F)(C5)C3)C4)cn(-c3ccc(F)cc3F)c2n1 [Example 102, 1-(2,4-Difluorophenyl)-7-[(2-fluoroethyl)(methyl)amino]-N-(3-fluorotricyclo[3.3.1.1^3,7]dec-1-yl)-4-oxo-1,4-dihydro-1,8-naphthyridine-3-carboxamide] | 31 | – | – | – |
| CC(C)(CC(F)(F)F)NC(=O)c1cn(-c2c(F)cc(F)cc2Cl)c2nc(N3C[C@@H](O)[C@H](O)C3)ccc2c1=O (single isomer, unassigned) [Example 392] | 6 | – | – | – |
| C[C@H](NC(=O)c1cn(-c2c(F)cc(F)cc2F)c2nc(N3CC4CC4(O)C3)ccc2c1=O)C(F)(F)F (single isomer, unassigned) [Example 317] | 26 | – | – | – |
| O=C(NC1(C(F)(F)F)CCC1)c1cn(-c2c(F)cc(F)cc2F)c2nc(N3C[C@@H](O)[C@H](O)C3)ccc2c1=O [Example 625, 7-[(3R,4R)-3,4-Dihydroxypyrrolidin-1-yl]-4-oxo-N-[1-(trifluoromethyl)cyclobutyl]-1-(2,4,6-trifluorophenyl)-1,4-dihydro-1,8-naphthyridine-3-carboxamide] | – | 43 | 100 | – |
| O=C(N[C@@H](C1CC1)C(F)(F)F)c1cn(-c2c(F)cc(F)cc2F)c2nc(N3C[C@@H](O)[C@@H](O)C3)ccc2c1=O [Example 630, N-[(1S)-1-Cyclopropyl-2,2,2-trifluoroethyl]-7-[(3R,4S)-3,4-dihydroxypyrrolidin-1-yl]-4-oxo-1-(2,4,6-trifluorophenyl)-1,4-dihydro-1,8-naphthyridine-3-carboxamide] | – | 48 | – | Emax (read-out: Efficiency): 100% |
| O=C(NC(c1c(F)cccc1F)C(F)(F)F)c1cn(-c2ccc(F)cc2F)c2nc(N3CCC(O)CC3=O)ccc2c1=O (racemic) [Example 252, rac-1-(2,4-Difluorophenyl)-N-[1-(2,6-difluorophenyl)-2,2,2-trifluoroethyl]-7-[4-hydroxy-2-oxopiperidin-1-yl]-4-oxo-1,4-dihydro-1,8-naphthyridine-3-carboxamide] | 109 | – | – | – |
| C[C@@H](COC(F)(F)F)NC(=O)c1cn(-c2c(F)cc(F)cc2Cl)c2nc(N3C[C@@H](O)[C@H](O)C3)ccc2c1=O [Example 322, 1-(2-Chloro-4,6-difluorophenyl)-7-[(3R,4R)-3,4-dihydroxypyrrolidin-1-yl]-4-oxo-N-[(2S)-1-(trifluoromethoxy)propan-2-yl]-1,4-dihydro-1,8-naphthyridine-3-carboxamide] | 40 | – | – | – |
| CN(C)c1ccc2c(=O)c(C(=O)NC3(C(F)(F)F)CCCC3)cn(-c3ccc(F)cc3F)c2n1 [Example 151, 1-(2,4-Difluorophenyl)-7-(dimethylamino)-4-oxo-N-[1-(trifluoromethyl)cyclopentyl]-1,4-dihydro-1,8-naphthyridine-3-carboxamide] | 23 | – | – | – |
| CC[C@@H](NC(=O)c1cn(-c2ccc(F)cc2F)c2nc(NCC(F)(F)F)ccc2c1=O)C(F)(F)F [Example 94, 1-(2,4-Difluorophenyl)-4-oxo-N-[(2R)-1,1,1-trifluorobutan-2-yl]-7-[(2,2,2-trifluoroethyl)amino]-1,4-dihydro-1,8-naphthyridine-3-carboxamide] | 164 | – | – | – |
| O=C(NC(c1ccccc1Cl)C(F)(F)F)c1cn(-c2ccccc2F)c2nc(N3CCC(O)C3=O)ccc2c1=O (single isomer, unassigned) [Example 290] | 312 | – | – | – |
| CN(C)c1ccc2c(=O)c(C(=O)NC34CC5CC(CC(F)(C5)C3)C4)cn(-c3ccc(F)cc3F)c2n1 [Example 37, 1-(2,4-Difluorophenyl)-7-(dimethylamino)-N-(3-fluorotricyclo[3.3.1.1^3,7]dec-1-yl)-4-oxo-1,4-dihydro-1,8-naphthyridine-3-carboxamide] | 23 | – | – | – |
| O=C(NC(c1cccc(Cl)c1)C(F)(F)F)c1cn(-c2ccc(F)cc2F)c2nc(N3C[C@@H](O)CC3=O)ccc2c1=O (mixture of isomers) [Example 274, N-[1-(3-Chlorophenyl)-2,2,2-trifluoroethyl]-1-(2,4-difluorophenyl)-7-[(4S)-4-hydroxy-2-oxopyrrolidin-1-yl]-4-oxo-1,4-dihydro-1,8-naphthyridine-3-carboxamide] | 49 | – | – | – |
| Cc1cccc(C)c1NC(=O)c1cn(-c2ccc(F)cc2F)c2nc(N(C)C)ccc2c1=O [Example 54, 1-(2,4-Difluorophenyl)-7-(dimethylamino)-N-(2,6-dimethylphenyl)-4-oxo-1,4-dihydro-1,8-naphthyridine-3-carboxamide] | 85 | – | – | – |
